Experimental data reported in patent US20260347338A1, “PYRIMIDINE/PYRIDINE DERIVATIVES OR SALTS THEREOF AND PHARMACEUTICAL COMPOSITIONS COMPRISING THE SAME” (YUHAN CORPORATION, priority 2023, published 2026).
Where a name gives a salt, the structure may show the parent alone.

What follows are compounds tested against T1, human recombinant HPK1 (Homo sapiens, UniProt Q92918) (assay: Inhibitory activity against human recombinant HPK1 (TR-FRET)). Conditions: ULight-p70S6K peptide, ATP at Km, room temperature, 1 hour, 0.32 to 1000 nM compound.
T1 construct: purchased BPS Bioscience
Format: biochemical
Outline: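 Recombinant human HPK1 with ULight-p70S6K peptide and ATP at Km, 1 h at room temperature in HEPES pH 7.4 buffer with Mg2+, Mn2+, EGTA, DTT; compounds 0.32–1000 nM final. EDTA stop, Eu-anti-phosphopeptide TR-FRET read (665 nm); IC50 from % inhibition versus DMSO, binned A–D at 10, 50, 100 nM.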

T1 sequence (Q92918 whole entry): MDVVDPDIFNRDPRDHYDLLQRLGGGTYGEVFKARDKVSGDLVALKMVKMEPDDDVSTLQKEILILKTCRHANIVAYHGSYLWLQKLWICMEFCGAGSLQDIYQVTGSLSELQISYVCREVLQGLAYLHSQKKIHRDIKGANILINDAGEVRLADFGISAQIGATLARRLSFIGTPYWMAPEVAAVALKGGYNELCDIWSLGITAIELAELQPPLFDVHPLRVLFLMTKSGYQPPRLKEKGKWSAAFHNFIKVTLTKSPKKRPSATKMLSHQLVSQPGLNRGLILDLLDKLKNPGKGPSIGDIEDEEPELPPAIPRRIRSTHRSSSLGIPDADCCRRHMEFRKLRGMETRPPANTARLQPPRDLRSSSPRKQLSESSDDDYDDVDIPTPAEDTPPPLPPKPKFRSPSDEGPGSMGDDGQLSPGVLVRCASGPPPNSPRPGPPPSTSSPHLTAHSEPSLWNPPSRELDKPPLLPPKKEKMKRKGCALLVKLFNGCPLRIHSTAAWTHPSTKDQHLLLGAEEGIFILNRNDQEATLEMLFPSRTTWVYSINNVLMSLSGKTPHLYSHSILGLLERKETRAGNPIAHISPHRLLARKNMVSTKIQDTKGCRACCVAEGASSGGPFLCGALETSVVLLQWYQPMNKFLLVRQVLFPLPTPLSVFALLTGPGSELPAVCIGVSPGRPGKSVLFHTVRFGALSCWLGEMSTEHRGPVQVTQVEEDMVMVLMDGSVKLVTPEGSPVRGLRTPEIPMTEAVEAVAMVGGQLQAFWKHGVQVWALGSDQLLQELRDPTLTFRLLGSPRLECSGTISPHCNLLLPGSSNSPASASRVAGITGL

IC50 [nM]	Structure (SMILES)
≤ 10	COc1cccc(F)c1-c1nccc(Nc2cc(N3CCC[C@H](N)C3)c(-c3cnn(CCN4CCOCC4)c3)cn2)n1 [Example 162, (S)-N-(4-(3-aminopiperidin-1-yl)-5-(1-(2-morpholinoethyl)-1H-pyrazol-4-yl)pyridin-2-yl)-2-(2-fluoro-6-methoxyphenyl)pyrimidin-4-amine hydrochloride]
≤ 10	COc1cccc(F)c1-c1nccc(Nc2cc(N3C[C@@H](N)C[C@H](F)C3)c(-c3cnn(CC(F)(F)F)c3)cn2)n1 [Example 332, N-(4-((3S,5S)-3-amino-5-fluoropiperidin-1-yl)-5-(1-(2,2,2-trifluoroethyl)-1H-pyrazol-4-yl)pyridin-2-yl)-2-(2-fluoro-6-methoxyphenyl)pyrimidin-4-amine hydrochloride]
≤ 10	COc1cccc(F)c1-c1nccc(Nc2cc(N3CCC[C@H](N)C3)c(C#Cc3cnn(C(F)(F)F)c3)cn2)n1 [Example 111, (S)-N-(4-(3-aminopiperidin-1-yl)-5-((1-(trifluoromethyl)-1H-pyrazol-4-yl)ethynyl)pyridin-2-yl)-2-(2-fluoro-6-methoxyphenyl)pyrimidin-4-amine hydrochloride]
≤ 10	COc1cccc(F)c1-c1nccc(Nc2cc(N3CCC[C@H](N)C3)c(-c3ccc(F)c(N(C)C)c3)cn2)n1 [Example 296, (S)-N-(4-(3-aminopiperidin-1-yl)-5-(3-(dimethylamino)-4-fluorophenyl)pyridin-2-yl)-2-(2-fluoro-6-methoxyphenyl)pyrimidin-4-amine hydrochloride]
≤ 10	COc1cc(F)cc(F)c1-c1nc(Nc2cc(N3CC[C@@H](F)[C@H](N)C3)c(-c3cnn(C(F)F)c3)cn2)ccc1N [Example 216, N^2-(4-((3R,4R)-3-amino-4-fluoropiperidin-1-yl)-5-(1-(difluoromethyl)-1H-pyrazol-4-yl)pyridin-2-yl)-6-(2,4-difluoro-6-methoxyphenyl)pyridin-2,5-diamine hydrochloride]
≤ 10	COc1cc(F)cc(F)c1-c1nccc(Nc2cc(N3CCC[C@H](O)C3)c(-c3cnn(CC(F)(F)F)c3)cn2)n1 [Example 174, (S)-1-(2-((2-(2,4-difluoro-6-methoxyphenyl)pyrimidin-4-yl)amino)-5-(1-(2,2,2-trifluoroethyl)-1H-pyrazol-4-yl)pyridin-4-yl)piperidin-3-ol]
≤ 10	COc1cc(F)cc(F)c1-c1nccc(Nc2cc(N3CCC[C@H](N)C3)c(-c3cnn(C(F)F)c3)cn2)n1 [Example 108, (S)-N-(4-(3-aminopiperidin-1-yl)-5-(1-(difluoromethyl)-1H-pyrazol-4-yl)pyridin-2-yl)-2-(2,4-difluoro-6-methoxyphenyl)pyrimidin-4-amine hydrochloride]
≤ 10	COc1cccc(F)c1-c1nc(Nc2cc(N3CCC[C@H](O)C3)c(C(=O)N[C@@H]3CCN(C)C3)cn2)ccc1[N+](=O)[O-] [Example 203, 6-((6-(2-fluoro-6-methoxyphenyl)-5-nitropyridin-2-yl)amino)-4-((S)-3-hydroxypiperidin-1-yl)-N-((R)-1-methylpyrrolidin-3-yl)nicotinamide]
≤ 10	COc1cccc(F)c1-c1nccc(Nc2cc(N3C[C@@H](N)C[C@@H](C(F)(F)F)C3)c(-c3cnn(C(F)F)c3)cn2)n1 [Example 305, N-(4-((3S,5R)-3-amino-5-(trifluoromethyl)piperidin-1-yl)-5-(1-(difluoromethyl)-1H-pyrazol-4-yl)pyridin-2-yl)-2-(2-fluoro-6-methoxyphenyl)pyrimidin-4-amine hydrochloride]
≤ 10	COc1cccc(F)c1-c1nc(Nc2cc(N3CCC[C@H](N)C3)c(C#Cc3cnn(C(F)(F)F)c3)cn2)ccc1[N+](=O)[O-] [Example 156, 4-((S)-3-aminopiperidin-1-yl)-N-(6-(2-fluoro-6-methoxyphenyl)-5-nitropyridin-2-yl)-5-((1-(trifluoromethyl)-1H-pyrazol-4-yl)ethynyl)pyridin-2-amine hydrochloride]
